Source: publication PMC8041433 (Environmental Health Perspectives, 2021)
Several values for one entry are separate records, joined by “and”; a condition that tells them apart may be missing. Identical values can stand only once. Like-named read-outs stand apart in the source and are kept apart here.

Experiments:
recombinant human AChE [1] = biological target: T1, recombinant human AChE (Homo sapiens, UniProt P22303); test: biochemical
recombinant human AChE [2] = biological target: T1, recombinant human AChE; test: biochemical; remark: listed apart in the source
AChE in SH-SY5Y cells = AChE in SH-SY5Y cells (Homo sapiens, UniProt P22303); test: cell-based
Sequence of AChE in SH-SY5Y cells (P22303 32-614): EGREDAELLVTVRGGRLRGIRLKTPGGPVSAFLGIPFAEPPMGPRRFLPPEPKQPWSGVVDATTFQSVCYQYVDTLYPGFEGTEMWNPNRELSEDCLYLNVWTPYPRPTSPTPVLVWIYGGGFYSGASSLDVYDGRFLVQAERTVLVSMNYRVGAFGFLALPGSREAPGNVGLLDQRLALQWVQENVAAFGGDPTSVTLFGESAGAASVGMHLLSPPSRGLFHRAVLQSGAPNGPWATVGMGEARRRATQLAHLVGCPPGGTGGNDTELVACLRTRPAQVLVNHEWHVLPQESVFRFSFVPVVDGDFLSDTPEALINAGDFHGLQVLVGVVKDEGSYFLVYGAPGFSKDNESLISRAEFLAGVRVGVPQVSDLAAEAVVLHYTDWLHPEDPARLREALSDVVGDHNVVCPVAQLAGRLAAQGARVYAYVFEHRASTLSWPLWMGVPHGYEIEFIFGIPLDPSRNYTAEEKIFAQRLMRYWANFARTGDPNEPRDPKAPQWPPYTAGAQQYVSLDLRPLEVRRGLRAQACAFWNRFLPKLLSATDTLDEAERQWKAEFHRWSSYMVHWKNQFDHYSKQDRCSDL

[3] = biological target: AChE in SH-SY5Y spheroids (Homo sapiens, UniProt P22303); test: cell-based; settings: potency (IC50)
Sequence of AChE in SH-SY5Y spheroids (P22303 32-614): as above

[4] = biological target: AChE in neural stem cells (Homo sapiens, UniProt P22303); test: cell-based
Sequence of AChE in neural stem cells (P22303 32-614): as above

[5] = biological target: AChE in neural stem cell spheroids (Homo sapiens, UniProt P22303); test: cell-based; settings: for IC50: potency (IC50)
Sequence of AChE in neural stem cell spheroids (P22303 32-614): as above

recombinant human AChE [6] = biological target: T1, recombinant human AChE; test: biochemical; assay type: biochemical; settings: for AC50: AC50 (uM)
recombinant human AChE [7] = biological target: T1, recombinant human AChE
recombinant human AChE [8] = biological target: T1, recombinant human AChE; test: biochemical; remark: listed apart in the source
[9] = potency (IC50), SH-SY5Y cells monolayer
[10] = Neural stem cell spheroid (24 h)
[11] = Neural stem cell spheroid (48 h)
[12] = potency (IC50), Enzyme with microsomes
Wherever IR or R is given: key: Reversible (R); Irreversible (IR); ND, not detected in enzyme-based AChE inhibition assay from current study.

T1 sequence (P22303 32-614): as above

Compound | CC-v2 (curve classes) (recombinant human AChE [1]) | Efficacy (recombinant human AChE [1]) | IC50 (recombinant human AChE [1]; potency (IC50), Enzyme) [µM] | IC50 (recombinant human AChE [2]) [µM] | CC-v2 (curve classes) (AChE in SH-SY5Y cells) | IC50 (AChE in SH-SY5Y cells; IC50 (uM)) | IC50 (AChE in SH-SY5Y cells; [9]) [µM] | IC50 ([3]; SH-SY5Y spheroids (24 h)) [µM] | IC50 ([3]; SH-SY5Y spheroids (48 h)) [µM] | IC50 [4] [µM] | IC50 [5, 10] [nM] | IC50 [5, 11] [nM] | AC50 (recombinant human AChE [6]) | CC-v2 (curve classes) (recombinant human AChE [7]) | Efficacy (recombinant human AChE [7]) | IC50 (recombinant human AChE [8]; [12]) [µM] | AC50 (recombinant human AChE [6]; activity_5) | AC50 (recombinant human AChE [6]; activity_10) | AC50 (recombinant human AChE [6]; activity_60) | further results
COP(=O)(OC)SCn1c(=O)oc2cc(Cl)cnc21 [Azamethiphos] | -1.1 | -98.261 | 1.91 ± 0.26 | 3.81 ± 0.25 | -1.1 | 3.56 µM and 3.17 µM | 2.81 ± 0.32 | 4.05 ± 2.65 | 3.3 ± 0.59 | 4.79 ± 0.31 | 1820 ± 760 | 3080 ± 770 | 11.1 µM and 15.7 µM and 14 µM and 39.5 µM and 35.2 µM and 17.7 µM and 7.03 µM and 7.89 µM and 9.93 µM | -2.1 | -92.198 | 6.34 ± 1.18 | – | – | – | –
CCN1CCC2(CC1)COc1cc3c(cc12)N(C(=O)c1ccc(-c2ccc(-c4nnc(C)o4)cc2C)cc1)CC3.Cl [SB236057A] | -2.1 | -86.107 | 38.3 ± 6.89 | 67.8 ± 8.64 | -2.1 | 29.3 µM and 23.2 µM | 33.8 ± 2.29 | 27.8 ± 11.7 | 25.9 ± 2.98 | 42.6 ± 2.88 | – | 4030 | – | 4 | 0 | 66 ± 15.1 | 72.8 µM and 64.9 µM and 45.9 µM | 51.5 µM and 91.6 µM | 64.9 µM and 51.5 µM and 72.8 µM | IC50 (recombinant human AChE [1]; IC50 (uM)): 32.8 µM; potency (IC50), Neural stem cell spheroid (24 h) [5]: Inactive; IR or R (recombinant human AChE [6]): R
CCOP(=S)(OCC)Oc1cc(-c2ccccc2)on1 [Isoxathion] | -3 | -107.392 | 44.4 | 85.3 ± 5.56 | -2.1 | 63.3 µM and 79.6 µM | 17 | 27 | 17.7 | 6.1 | 730 | 1680 | 55.9 µM (2×) and 49.8 µM (3×) and 44.4 µM (2×) | -1.1 | -99.076 | 2.11 | – | – | – | –
CCOP(=S)(OCC)SCn1c(=O)oc2cc(Cl)ccc21 [Phosalone] | 4 | – | – | – | -2.2 | 56.4 µM and 48.1 µM and 35.6 µM and 76.2 µM | – | 66.3 | 50 | 17.1 | 9610 | 10500 | – | -1.1 | – | 2.91 | 55.9 µM and 35.2 µM | 55.9 µM and 62.7 µM and 49.8 µM | 62.7 µM and 55.9 µM | AChE inhibition (result in words) (recombinant human AChE [1]): did not show effects; potency (IC50), Enzyme (recombinant human AChE [1]): Inactive; potency (IC50), Enzyme-based assay with heat-inactivated microsomes (recombinant human AChE [2]): Inactive; potency (IC50), SH-SY5Y cells monolayer (AChE in SH-SY5Y cells): Inactive; IC50 (recombinant human AChE [8]; IC50 (uM)): 3.99 µM and 8.55 µM
CCOP(=S)(OCC)SCSP(=S)(OCC)OCC [Ethion] | -2.1 | -121.235 | 7.92 ± 0.91 | 58.7 ± 10.6 | -2.1 | 39.9 µM and 35.6 µM and 31.7 µM | 17 ± 1.1 | 31.9 ± 21.6 | 42.8 ± 2.79 | 7.03 ± 3.56 | 90 ± 20 | 480 ± 460 | 49.8 µM (3×) and 55.9 µM (3×) and 88.5 µM and 62.7 µM | -1.1 | -94.606 | 11.1 | – | – | – | –
